Data taken from US6737383B1, “Herbicidal oxadiazolidines” (priority 1999, dated 2004).

Experiments:
[1] = system: rice; assay: Test B flood test rice; format: in vivo, Oryza sativa
Summary of the method: (§1)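 Flood test on plants grown to the 2-leaf stage; treated plants kept in greenhouse twelve to sixteen days, then visually rated against controls on a 0 (no effect) to 10 (complete control) scale.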

[2] = system: wheat; assay: Test B pre/postemergence wheat; format: in vivo, Triticum aestivum
Summary of the method: (§2)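 Herbicidal effect was estimated by eye on a ten-point control scale after plants spent twelve to sixteen days in a greenhouse following soil or foliar treatment. Foliar sprays targeted plants at one to four leaves; all doses were formulated in a non-phytotoxic solvent with surfactant.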

[3] = system: sugar beet; assay: Test B pre/postemergence sugar beet; format: in vivo, Beta vulgaris
Summary of the method: as §2

[4] = system: velvetleaf; assay: Test B pre/postemergence velvetleaf; format: in vivo, Abutilon theophrasti
Summary of the method: as §2

[5] = system: cocklebur; assay: Test B pre/postemergence cocklebur; format: in vivo, Xanthium strumarium
Summary of the method: as §2

[6] = system: purple nutsedge; assay: Test B pre/postemergence purple nutsedge; format: in vivo, Cyperus rotundus
Summary of the method: as §2

[7] = system: bamyardgrass; assay: Test B flood test barnyardgrass; format: in vivo, Echinochloa crus-galli
Summary of the method: as §1

[8] = system: crabgrass; assay: Test B pre/postemergence crabgrass; format: in vivo, Digitaria sanguinalis
Summary of the method: as §2

[9] = system: blackgrass; assay: Test B pre/postemergence blackgrass; format: in vivo, Alopecurus myosuroides
Summary of the method: as §2

[10] = system: smallflower flatsedge; assay: Test B flood test smallflower flatsedge; format: in vivo, Cyperus difformis
Summary of the method: as §1

[11] = system: duck salad; assay: Test B flood test duck salad; format: in vivo, Heteranthera limosa
Summary of the method: as §1

[12] = system: soybean; assay: Test B pre/postemergence soybean; format: in vivo, Glycine max
Summary of the method: as §2

[13] = system: bedstraw; assay: Test B pre/postemergence bedstraw; format: in vivo, Galium aparine
Summary of the method: as §2

[14] = system: corn; assay: Test B pre/postemergence corn; format: in vivo, Zea mays
Summary of the method: as §2

[15] = system: rape; assay: Test B pre/postemergence rape; format: in vivo, Brassica napus
Summary of the method: as §2

[16] = system: wild oat; assay: Test B pre/postemergence wild oat; format: in vivo, Avena fatua
Summary of the method: as §2

[17] = system: surinam grass; assay: Test B pre/postemergence surinam grass; format: in vivo, Brachiaria decumbens
Summary of the method: as §2

[18] = Postemergence, Rate 62 g/ha, scale 0 to 10, 0 is no effect, 10 is complete control
[19] = Rate 125 g/ha, Postemergence section (flood test species), scale 0 to 10, 0 no effect, 10 complete control
[20] = Rate 125 g/ha, Pre-emergence, flood test species, scale 0 to 10 where 0 is no effect and 10 is complete control
[21] = Rate 250 g/ha, headed Pre-emergence (flood test species), scale 0 to 10 (0 no effect, 10 complete control)
[22] = Rate 500 g/ha, Postemergence section of Table B, 0 to 10 scale (0 no effect, 10 complete control)
[23] = Rate 500 g/ha, headed Pre-emergence (flood test species), scale 0 to 10 (0 no effect, 10 complete control)
[24] = Rate 1000 g/ha, Pre-emergence (as headed), scale 0 to 10
[25] = flood test, listed under Postemergence, Rate 250 g/ha, scale 0 to 10, 0 no effect, 10 complete control
[26] = Postemergence, Rate 250 g/ha, scale 0 to 10, 0 no effect, 10 complete control
[27] = Preemergence, Rate 62 g/ha, scale 0 to 10, 0 is no effect, 10 is complete control
[28] = Preemergence, Rate 125 g/ha, scale 0 to 10 (0 no effect, 10 complete control)
[29] = Preemergence, Rate 250 g/ha, scale of 0 to 10 where 0 is no effect and 10 is complete control
[30] = Preemergence, Rate 500 g/ha, scale 0 (no effect) to 10 (complete control)
[31] = Rate 125 g/ha, Postemergence, scale 0 to 10, 0 no effect, 10 complete control
[32] = Rate 500 g/ha, Postemergence, 0 to 10 scale (0 no effect, 10 complete control)

Compound: COc1ccc(-n2c(=O)on(C(=O)N(c3ccc(F)cc3)C(C)C)c2=O)c(C)c1 [Compound 35]
- Rice plant response rating [1, 18]: 0
- Rice plant response rating [1, 19]: 0
- Rice plant response rating [1, 20]: 0
- Rice plant response rating [1, 21]: 0
- Rice plant response rating [1, 22]: 0
- Plant response rating, Rice [1, 23]: 0
- Rice plant response rating [1, 24]: 0
- Rice plant response rating [1, 25]: 0
- Wheat plant response rating [2, 18]: 0
- Wheat plant response rating [2, 26]: 0
- Plant response rating, Wheat [2, 27]: 0
- Plant response rating, Wheat [2, 28]: 0
- Plant response rating, Wheat [2, 29]: 0
- Wheat plant response rating [2, 30]: 0
- Wheat plant response rating [2, 31]: 0
- Sugarbeets plant response rating [3, 18]: 0
- Plant response rating, Sugarbeets [3, 27]: 0
- Plant response rating, Sugarbeets [3, 28]: 0
- Plant response rating, Sugarbeets [3, 29]: 0
- Sugarbeets plant response rating [3, 30]: 0
- Sugarbeets plant response rating [3, 31]: 3
- Velvetleaf plant response rating [4, 18]: 0
- Velvetleaf plant response rating [4, 26]: 0
- Plant response rating, Velvetleaf [4, 27]: 0
- Plant response rating, Velvetleaf [4, 28]: 0
- Plant response rating, Velvetleaf [4, 29]: 0
- Velvetleaf plant response rating [4, 30]: 0
- Velvetleaf plant response rating [4, 31]: 0
- Cocklebur plant response rating [5, 18]: 0
- Cocklebur plant response rating [5, 26]: 4
- Plant response rating, Cocklebur [5, 27]: 0
- Plant response rating, Cocklebur [5, 28]: 0
- Plant response rating, Cocklebur [5, 29]: 0
- Cocklebur plant response rating [5, 30]: 0
- Cocklebur plant response rating [5, 31]: 2
- Cocklebur plant response rating [5, 32]: 5
- Nutsedge plant response rating [6, 18]: 0
- Nutsedge plant response rating [6, 26]: 0
- Plant response rating, Nutsedge [6, 27]: 0
- Plant response rating, Nutsedge [6, 28]: 0
- Plant response rating, Nutsedge [6, 29]: 0
- Nutsedge plant response rating [6, 30]: 0
- Nutsedge plant response rating [6, 31]: 0
- Nutsedge plant response rating [6, 32]: 0
- Barnyardgrass plant response rating [7, 18]: 0
- Barnyardgrass plant response rating [7, 19]: 0
- Barnyardgrass plant response rating [7, 20]: 0
- Barnyardgrass plant response rating [7, 21]: 0
- Barnyardgrass plant response rating [7, 22]: 0
- Plant response rating, Barnyardgrass [7, 23]: 0
- Barnyardgrass plant response rating [7, 24]: 0
- Barnyardgrass plant response rating [7, 25]: 0
- Crabgrass plant response rating [8, 18]: 0
- Crabgrass plant response rating [8, 26]: 1
- Plant response rating, Crabgrass [8, 27]: 3
- Plant response rating, Crabgrass [8, 28]: 3
- Plant response rating, Crabgrass [8, 29]: 6
- Crabgrass plant response rating [8, 30]: 10
- Crabgrass plant response rating [8, 31]: 0
- Crabgrass plant response rating [8, 32]: 7
- Blackgrass plant response rating [9, 18]: 0
- Blackgrass plant response rating [9, 26]: 1
- Plant response rating, Blackgrass [9, 27]: 0
- Plant response rating, Blackgrass [9, 28]: 2
- Plant response rating, Blackgrass [9, 29]: 2
- Blackgrass plant response rating [9, 30]: 3
- Blackgrass plant response rating [9, 31]: 0
- Blackgrass plant response rating [9, 32]: 7
- S. Flatsedge plant response rating [10, 18]: 0
- S. Flatsedge plant response rating ([10]; Pre-emergence, Rate 1000 g/ha, scale 0 to 10 (0 no effect, 10 complete control)): 0
- S. Flatsedge plant response rating [10, 19]: 0
- S. Flatsedge plant response rating [10, 20]: 0
- S. Flatsedge plant response rating [10, 21]: 0
- Plant response rating, S. Flatsedge [10, 23]: 0
- S. Flatsedge plant response rating [10, 25]: 0
- Ducksalad plant response rating [11, 18]: 0
- Ducksalad plant response rating [11, 19]: 0
- Ducksalad plant response rating [11, 20]: 0
- Ducksalad plant response rating [11, 21]: 0
- Ducksalad plant response rating [11, 22]: 0
- Plant response rating, Ducksalad [11, 23]: 0
- Ducksalad plant response rating [11, 24]: 0
- Ducksalad plant response rating [11, 25]: 0
- Soybean plant response rating [12, 18]: 1
- Soybean plant response rating [12, 26]: 1
- Plant response rating, Soybean [12, 27]: 0
- Plant response rating, Soybean [12, 28]: 0
- Plant response rating, Soybean [12, 29]: 0
- Soybean plant response rating [12, 30]: 0
- Soybean plant response rating [12, 31]: 1
- Bedstraw plant response rating [13, 18]: 0
- Bedstraw plant response rating [13, 26]: 3
- Plant response rating, Bedstraw [13, 27]: 0
- Plant response rating, Bedstraw [13, 28]: 0
- Plant response rating, Bedstraw [13, 29]: 0
- Bedstraw plant response rating [13, 30]: 0
- Bedstraw plant response rating [13, 31]: 2
- Bedstraw plant response rating [13, 32]: 6
- Corn plant response rating [14, 18]: 0
- Corn plant response rating [14, 26]: 0
- Plant response rating, Corn [14, 27]: 0
- Plant response rating, Corn [14, 28]: 0
- Plant response rating, Corn [14, 29]: 0
- Corn plant response rating [14, 30]: 0
- Corn plant response rating [14, 31]: 0
- Corn plant response rating [14, 32]: 0
- Rape plant response rating [15, 18]: 0
- Rape plant response rating [15, 26]: 0
- Plant response rating, Rape [15, 27]: 0
- Plant response rating, Rape [15, 28]: 0
- Plant response rating, Rape [15, 29]: 0
- Rape plant response rating [15, 30]: 0
- Rape plant response rating [15, 31]: 0
- Rape plant response rating [15, 32]: 2
- Wild oats plant response rating [16, 18]: 0
- Wild oats plant response rating [16, 26]: 0
- Plant response rating, Wild oats [16, 28]: 0
- Plant response rating, Wild oats [16, 29]: 2
- Wild oats plant response rating [16, 30]: 6
- Wild oats plant response rating [16, 31]: 0
- B. signalgrass plant response rating [17, 18]: 0
- B. signalgrass plant response rating [17, 26]: 0
- Plant response rating, B. signalgrass [17, 27]: 0
- Plant response rating, B. signalgrass [17, 28]: 0
- Plant response rating, B. signalgrass [17, 29]: 3
- B. signalgrass plant response rating [17, 30]: 7
- B. signalgrass plant response rating [17, 31]: 0
- B. signalgrass plant response rating [17, 32]: 0
